Reference: patent US6562828B1, “Amidine compounds” (Japan Tobacco Inc., priority 1998, dated 2003)
Where a name gives a salt, the structure may show the parent alone.

Key:
[1] = biological target: T1, Human FXa (Homo sapiens, UniProt P00742); experiment: Determination of anti-factor Xa (FXa) activity, synthetic substrate S-2222; format: biochemical; conditions: S-2222, 37° C., pH 8.4, read-out: Experimental Example 1: anti-FXa activity, IC50
T1 construct: Human FXa [Enzyme research Laboratories (USA)] enzyme; purchased Enzyme Research Laboratories (USA)
Protocol: Determination of Anti-factor Xa (FXa) Activity
Human FXa [Enzyme research Laboratories (USA)] enzyme (40 μl, 0.16U/ml) and test compounds (40 l) adjusted to various concentrations were incubated in 0.1M Tris (Tris-hydroxymethyl-aminomethane) buffer (pH 8.4) containing 0.2M sodium chloride (herein to be referred to as 0.1 M tris-0.2M NaCl buffer) (40 μl) at 37° C. for 10 min. A synthetic substrate S-2222 (Daiichi Pure Chemical (Tokyo, Japan), 40 μl) adjusted to 0.8 mM was added and the mixture was incubated at 37° C. for 10 min. The reaction was stopped by addition of 60% acetic acid (40 μl) and absorbance at 405 nm was measured by Model 3550 (BIO-RAD). For the control, the solvent was used instead of the test compound.

[2] = biological target: T2, Human FIIa (Homo sapiens, UniProt P00734); experiment: Determination of anti-factor IIa (FIIa) activity, synthetic substrate S-2238; format: biochemical; conditions: S-2238, 37° C., pH 8.4, read-out: Experimental Example 2: anti-FIIa activity, IC50
T2 construct: purchased Sigma

T1 sequence (P00742 235-488 limits assumed): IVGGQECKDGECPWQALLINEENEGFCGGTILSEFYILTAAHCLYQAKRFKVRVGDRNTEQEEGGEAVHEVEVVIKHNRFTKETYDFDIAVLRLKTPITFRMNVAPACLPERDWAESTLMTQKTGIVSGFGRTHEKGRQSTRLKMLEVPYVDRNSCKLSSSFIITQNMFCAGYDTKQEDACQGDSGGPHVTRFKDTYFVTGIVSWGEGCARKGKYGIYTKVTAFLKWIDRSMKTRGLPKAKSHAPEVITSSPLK
T1 sequence (P00742 41-179 partner limits assumed): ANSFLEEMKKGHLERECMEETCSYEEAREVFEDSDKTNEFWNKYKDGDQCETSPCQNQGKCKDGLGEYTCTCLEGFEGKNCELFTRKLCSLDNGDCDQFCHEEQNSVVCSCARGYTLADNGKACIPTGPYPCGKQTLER

N=C(N)N1CCc2ccc(OCC3CCN(c4ccncc4)CC3)cc2C1 [Example 1, 7-[1-(Pyridin-4-yl)piperidin-4-ylmethoxy]-1,2,3,4-tetrahydroisoquinoline-2-carboxamidine Dihydrochloride]
IC50 [1]: 60 nM | IC50 [2]: > 10000 nM

N=C(N)N1CCc2ccc(OCC3CCN(c4ccnc5ccccc45)CC3)cc2C1 [Example 2, 7-[1-(Quinolin-4-yl)piperidin-4-ylmethoxy]-1,2,3,4-tetrahydroisoquinoline-2-carboxamidine Dihydrochloride]
IC50 [1]: 400 nM | IC50 [2]: > 10000 nM

N/C(=N/O)N1CCc2ccc(OCC3CCN(c4ccncc4)CC3)cc2C1 [Example 4, 7-[1-(Pyridin-4-yl)piperidin-4-ylmethoxy]-1,2,3,4-tetrahydroisoquinoline-2-carboxamide Oxime Dihydrochloride]
IC50 [1]: 600 nM | IC50 [2]: > 10000 nM

CCOC(=O)C1(COc2ccc3c(c2)CN(C(=N)N)CC3)CCN(c2ccncc2)CC1 [Example 6, 4-(2-Amidino-1,2,3,4-tetrahydroisoquinolin-7-yloxymethyl)-1-(pyridin-4-yl)piperidine-4-carboxylic Acid Ethyl Ester Dihydrochloride]
IC50 [1]: 80 nM | IC50 [2]: > 10000 nM

CCOC(=O)C1(COc2ccc3c(c2)CN(C(=N)N)CC3)CCN(c2cc(C)nc(C)c2)CC1 [Example 10, 4-(2-Amidino-1,2,3,4-tetrahydroisoquinolin-7-yloxymethyl)-1-(2,6-dimethylpyridin-4-yl)piperidine-4-carboxylic Acid Ethyl Ester Dihydrochloride]
IC50 [1]: 700 nM | IC50 [2]: > 10000 nM

Cc1cc(N2CCC(COc3ccc4c(c3)CN(C(=N)N)CC4)(C(=O)O)CC2)cc(C)n1 [Example 11, 4-(2-Amidino-1,2,3,4-tetrahydroisoquinolin-7-yloxymethyl)-1-(2,6-dimethylpyridin-4-yl)piperidine-4-carboxylic Acid Dihydrochloride]
IC50 [1]: 300 nM | IC50 [2]: > 10000 nM

CCOC(=O)C1(COc2ccc3c(c2)CN(C(=N)N)CC3)CCN(c2ccnc(C)c2)CC1 [Example 12, 4-(2-Amidino-1,2,3,4-tetrahydroisoquinolin-7-yloxymethyl)-1-(2-methylpyridin-4-yl)piperidine-4-carboxylic Acid Ethyl Ester Dihydrochloride]
IC50 [1]: 600 nM

Cc1cc(N2CCC(COc3ccc4c(c3)CN(C(=N)N)CC4)(C(=O)O)CC2)ccn1 [Example 13, 4-(2-Amidino-1,2,3,4-tetrahydroisoquinolin-7-yloxymethyl)-1-(2-methylpyridin-4-yl)piperidine-4-carboxylic Acid Dihydrochloride]
IC50 [1]: 200 nM | IC50 [2]: > 10000 nM

N=C(N)N1CCc2ccc(OCC3(C(=O)O)CCN(c4ccncn4)CC3)cc2C1 [Example 14, 4-(2-Amidino-1,2,3,4-tetrahydroisoquinolin-7-yloxymethyl)-1-(pyrimidin-4-yl)piperidine-4-carboxylic Acid Dihydrochloride]
IC50 [1]: 100 nM | IC50 [2]: > 10000 nM

CCOC(=O)C1(CCOc2ccc3c(c2)CN(C(=N)N)CC3)CCN(c2ccncc2)CC1 [Example 15, 4-[2-(2-Amidino-1,2,3,4-tetrahydroisoquinolin-7-yloxy)ethyl]-1-(pyridin-4-yl)piperidine-4-carboxylic Acid Ethyl Ester Dihydrochloride]
IC50 [1]: 200 nM

N=C(N)N1CCc2ccc(OCCC3(C(=O)O)CCN(c4ccncc4)CC3)cc2C1 [Example 16, 4-[2-(2-Amidino-1,2,3,4-tetrahydroisoquinolin-7-yloxy)ethyl]-1-(pyridin-4-yl)piperidine-4-carboxylic Acid Dihydrochloride]
IC50 [1]: 200 nM | IC50 [2]: > 10000 nM

N=C(N)N1CCc2ccc(OCC3CCN(CCO)CC3)cc2C1 [Example 21, 7-[1-(2-Hydroxyethyl)piperidin-4-ylmethoxy]-1,2,3,4-tetrahydroisoquinoline-2-carboxamidine Dihydrochloride]
IC50 [1]: 700 nM | IC50 [2]: > 10000 nM

N=C(N)N1CCc2ccc(OCC3CCN(Cc4ccncc4)CC3)cc2C1 [Example 22, 7-[1-(Pyridin-4-ylmethyl)piperidin-4-ylmethoxy-1,2,3,4-tetrahydroisoquinoline-2-carboxamidine Trihydrochloride]
IC50 [1]: 800 nM | IC50 [2]: > 10000 nM

CC(=N)N1CCC(COc2ccc3c(c2)CN(C(=N)N)CC3)CC1 [Example 29, 7-(1-Acetimidoylpiperidin-4-ylmethoxy)-1,2,3,4-tetrahydroisoquinoline-2-carboxamidine Dihydrochloride]
IC50 [1]: 500 nM | IC50 [2]: > 10000 nM

N=C(N)N1CCc2ccc(OCC3CCN(C(=N)Cc4ccccc4)CC3)cc2C1 [Example 30, 7-(1-Phenylacetimidoylpiperidin-4-ylmethoxy)-1,2,3,4-tetrahydroisoquinoline-2-carboxamidine Dihydrochloride]
IC50 [1]: 400 nM | IC50 [2]: > 10000 nM

N=C(N)N1CCc2ccc(OCC3CCN(c4ccc(NC(=O)c5ccccc5)cn4)CC3)cc2C1 [Example 32, N-[2-[4-(2-Amidino-1,2,3,4-tetrahydroisoquinolin-7-yloxymethyl)-piperidin-1-yl]pyridin-5-yl]benzamide Dihydrochloride]
IC50 [1]: 400 nM | IC50 [2]: > 10000 nM

CCOC(=O)/C=C/c1cnccc1N1CCC(COc2ccc3c(c2)CN(C(=N)N)CC3)CC1 [Example 33, 3-[4-[4-(2-Amidino-1,2,3,4-tetrahydroisoquinolin-7-yloxymethyl)-piperidin-1-yl]pyridin-3-yl]-2-propenoic Acid Ethyl Ester Dihydrochloride]
IC50 [1]: 300 nM | IC50 [2]: > 10000 nM

COC(=O)c1cnccc1N1CCC(COc2ccc3c(c2)CN(C(=N)N)CC3)CC1 [Example 34, 4-[4-(2-Amidino-1,2,3,4-tetrahydroisoquinolin-7-yloxymethyl)-piperidin-1-yl]pyridine-3-carboxylic Acid Methyl Ester Dihydrochloride]
IC50 [1]: 200 nM | IC50 [2]: > 10000 nM

N#CC1(CCOc2ccc3c(c2)CN(C(=N)N)CC3)CCN(c2ccncc2)CC1 [Example 37, 7-[2-[4-Cyano-1-(pyridin-4-yl)piperidin-4-yl]ethoxy]-1,2,3,4-tetrahydroisoquinoline-2-carboxamidine Dihydrochloride]
IC50 [1]: 40 nM | IC50 [2]: > 10000 nM

N=C(N)c1ccc2ccc(OCC3(C(=O)O)CCN(c4ccncc4)CC3)c(Cl)c2c1 [Example 39, 4-(2-Amidino-8-chloronaphthalen-7-yloxymethyl)-1-(pyridin-4-yl)piperidine-4-carboxylic Acid Dihydrochloride]
IC50 [1]: 500 nM | IC50 [2]: > 10000 nM

CCOC(=O)CCc1cnccc1N1CCC(COc2ccc3c(c2)CN(C(=N)N)CC3)CC1 [Example 88, 3-[4-[4-(2-Amidino-1,2,3,4-tetrahydroisoquinolin-7-yloxymethyl)piperidin-1-yl]pyridin-3-]propionic Acid Ethyl Ester Dihydrochloride]
IC50 [1]: 200 nM

N=C(N)c1ccc2c(c1)nc(CN(C(=O)c1ccc(C(=O)O)cc1)c1ccc(OC3CCN(C(=N)NCc4ccccc4)CC3)cc1)n2CC(=O)NC1CCCCC1 [Example 110, N-[5-Amidino-1-(cyclohexylcarbamoylmethyl)benzimidazol-2-ylmethyl]-N-[4-[1-[amino(benzylinino)methyl]piperidin-4-yloxy]phenyl]carbamoylbenzoic Acid Dihydrochloride]
IC50 [1]: 80 nM
